Where two headings read alike, the source gives them in different places.
Key:
[1] = molecular target: isolated recombinant JAK2 kinase domain (Homo sapiens (Human), UniProt O60674); experiment: JAK2 enzyme assay (Caliper LabChip, Ki); details: read-out: JAK2 Ki
[2] = test system: JAK1-dependent STAT6 phosphorylation in BEAS-2B human bronchial epithelial cells; experiment: JAK1 pathway assay: IL-13 stimulated STAT6 phosphorylation in BEAS-2B cells; type: cell-based; details: BEAS-2B cells, IL-13 stimulation, read-out: IL-13 p-STAT6 BEAS-2B IC50
How it was run: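 BEAS-2B bronchial epithelial cells plated one day before, run in complete growth medium. Phospho-STAT6 in lysates measured by MesoScale Discovery; EC50 reported.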

[3] = molecular target: isolated recombinant JAK1 kinase domain (Homo sapiens (Human), UniProt P23458); experiment: JAK1 enzyme assay (Caliper LabChip, Ki); type: biochemical
isolated recombinant JAK1 kinase domain, sequence (P23458 875-1153): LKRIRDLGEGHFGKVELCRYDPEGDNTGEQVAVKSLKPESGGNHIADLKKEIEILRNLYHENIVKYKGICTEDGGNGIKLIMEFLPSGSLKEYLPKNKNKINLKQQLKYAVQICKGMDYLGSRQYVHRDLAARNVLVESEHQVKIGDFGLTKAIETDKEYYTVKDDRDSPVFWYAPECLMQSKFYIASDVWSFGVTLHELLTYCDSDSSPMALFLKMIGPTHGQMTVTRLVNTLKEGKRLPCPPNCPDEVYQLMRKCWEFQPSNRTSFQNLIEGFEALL
Experimental: The activity of the isolated recombinant JAK1 and JAK2 kinase domain was measured by monitoring phosphorylation of a peptide derived from JAK3 ([…] fluorescently labeled on the N-terminus with 5-carboxyfluorescein) using the Caliper LabChip R technology (Caliper Life Sciences, Hopkinton, Mass.).

isolated recombinant JAK2 kinase domain, sequence (O60674 849-1124): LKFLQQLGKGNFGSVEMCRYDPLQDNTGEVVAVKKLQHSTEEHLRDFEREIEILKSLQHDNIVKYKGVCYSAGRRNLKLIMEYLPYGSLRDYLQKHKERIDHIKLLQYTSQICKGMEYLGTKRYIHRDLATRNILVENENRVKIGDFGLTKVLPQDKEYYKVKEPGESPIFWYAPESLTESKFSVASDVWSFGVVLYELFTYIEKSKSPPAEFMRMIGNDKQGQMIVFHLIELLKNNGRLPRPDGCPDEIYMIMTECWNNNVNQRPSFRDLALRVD

Row | SMILES | Ki [1] [nM] | Ki [3] [nM] | IC50 ([2]; Homo sapiens, BEAS-2B) [nM] | IC50 [2] [nM]
1 | O=C(Nc1c[nH]nc1-c1cc2c(cc1OC(F)F)CCC2)c1cnn2cccnc12 [Example 26, N-[3-[6-(difluoromethoxy)indan-5-yl]-1H-pyrazol-4-yl]pyrazolo[1,5-a]pyrimidine-3-carboxamide] | 0.08 | 0.19 | 8 | 
2 | CC1CNc2cc(OC(F)F)c(-c3n[nH]cc3NC(=O)c3cnn4cccnc34)cc2S1 (stereo not drawn) [Example 37, N-[3-[6-(difluoromethoxy)-2-methyl-3,4-dihydro-2H-1,4-benzothiazin-7-yl]-1H-pyrazol-4-yl]pyrazolo[1,5-a]pyrimidine-3-carboxamide] | 0.05 | 0.07 | 5 | 
3 | CC1Sc2cc(-c3n[nH]cc3NC(=O)c3cnn4cccnc34)c(OC(F)F)cc2NC1=O (stereo not drawn) [Example 39, N-[3-[6-(difluoromethoxy)-2-methyl-3-oxo-4H-1,4-benzothiazin-7-yl]-1H-pyrazol-4-yl]pyrazolo[1,5-a]pyrimidine-3-carboxamide] | 0.05 | 0.06 | 71 | 
4 | O=C1COc2cc(-c3n[nH]cc3NC(=O)c3cnn4cccnc34)c(OC(F)F)cc2N1 [Example 40, N-[3-[6-(difluoromethoxy)-3-oxo-4H-1,4-benzoxazin-7-yl]-1H-pyrazol-4-yl]pyrazolo[1,5-a]pyrimidine-3-carboxamide] | 0.06 | 0.09 | 67 | 
5 | C[C@H]1COc2cc(-c3n[nH]cc3NC(=O)c3cnn4cccnc34)c(OC(F)F)cc2N1 [Example 42, N-[3-[(3S)-6-(difluoromethoxy)-3-methyl-3,4-dihydro-2H-1,4-benzoxazin-7-yl]-1H-pyrazol-4-yl]pyrazolo[1,5-a]pyrimidine-3-carboxamide] | 0.25 | 0.44 | 34 | 
6 | C[C@@H]1COc2cc(-c3n[nH]cc3NC(=O)c3cnn4cccnc34)c(OC(F)F)cc2N1 [Example 43, N-[3-[(3R)-6-(difluoromethoxy)-3-methyl-3,4-dihydro-2H-1,4-benzoxazin-7-yl]-1H-pyrazol-4-yl]pyrazolo[1,5-a]pyrimidine-3-carboxamide] | 0.17 | 0.25 | 12 | 
7 | O=C(Nc1cn(CC(=O)N2CCC(CN3CCOCC3)CC2)nc1-c1cc2c(cc1OC(F)F)NCCO2)c1cnn2cccnc12 [Example 44, N-[3-[6-(difluoromethoxy)-3,4-dihydro-2H-1,4-benzoxazin-7-yl]-1-[2-[4-(morpholinomethyl)-1-piperidyl]-2-oxo-ethyl]pyrazol-4-yl]pyrazolo[1,5-a]pyrimidine-3-carboxamide] | 0.51 | 0.34 | 45 | 
8 | C[C@H]1CNc2cc(OC(F)F)c(-c3nn(CC(=O)N4CCC(CN5CCOCC5)CC4)cc3NC(=O)c3cnn4cccnc34)cc2S1 [Example 45, N-[1-[2-[4-(morpholinomethyl)-1-piperidyl]-2-oxo-ethyl]-3-[(2S)-6-(difluoromethoxy)-2-methyl-3,4-dihydro-2H-1,4-benzothiazin-7-yl]pyrazol-4-yl]pyrazolo[1,5-a]pyrimidine-3-carboxamide] | 0.24 | 0.22 | 29 | 
9 | C[C@@H]1CNc2cc(OC(F)F)c(-c3nn(CC(=O)N4CCC(CN5CCOCC5)CC4)cc3NC(=O)c3cnn4cccnc34)cc2S1 [Example 46, N-[1-[2-[4-(morpholinomethyl)-1-piperidyl]-2-oxo-ethyl]-3-[(2R)-6-(difluoromethoxy)-2-methyl-3,4-dihydro-2H-1,4-benzothiazin-7-yl]pyrazol-4-yl]pyrazolo[1,5-a]pyrimidine-3-carboxamide] | 0.31 | 0.25 | 31 | 
10 | O=C(Nc1cn(CC(=O)N2CCC(N3CCOCC3)CC2)nc1-c1cc2c(cc1OC(F)F)NCCO2)c1cnn2cccnc12 [Example 47, N-[3-[6-(difluoromethoxy)-3,4-dihydro-2H-1,4-benzoxazin-7-yl]-1-[2-(4-morpholino-1-piperidyl)-2-oxo-ethyl]pyrazol-4-yl]pyrazolo[1,5-a]pyrimidine-3-carboxamide] | 0.45 | 0.31 | 106 | 
11 | O=C(Nc1cn(CC(=O)N2CCC(O)CC2)nc1-c1cc2c(cc1OC(F)F)NCCO2)c1cnn2cccnc12 [Example 48, N-[3-[6-(difluoromethoxy)-3,4-dihydro-2H-1,4-benzoxazin-7-yl]-1-[2-(4-hydroxy-1-piperidyl)-2-oxo-ethyl]pyrazol-4-yl]pyrazolo[1,5-a]pyrimidine-3-carboxamide] | 0.51 | 0.3 | > 1000 | 
12 | O=C(Nc1cn(CC(=O)N2CC=CCC2)nc1-c1cc2c(cc1OC(F)F)NCCO2)c1cnn2cccnc12 [Example 49, N-[3-[6-(difluoromethoxy)-3,4-dihydro-2H-1,4-benzoxazin-7-yl]-1-[2-(3,6-dihydro-2H-pyridin-1-yl)-2-oxo-ethyl]pyrazol-4-yl]pyrazolo[1,5-a]pyrimidine-3-carboxamide] | 0.29 | 0.23 | 19 | 
13 | O=C(Nc1cn(CC(=O)N2CC=CCC2)nc1-c1cc2c(cc1OC(F)F)NCCS2)c1cnn2cccnc12 [Example 50, N-[3-[6-(difluoromethoxy)-3,4-dihydro-2H-1,4-benzothiazin-7-yl]-1-[2-(3,6-dihydro-2H-pyridin-1-yl)-2-oxo-ethyl]pyrazol-4-yl]pyrazolo[1,5-a]pyrimidine-3-carboxamide] | 0.1 | 0.11 | 10 | 
14 | O=C(Nc1cn(CC(=O)N2CCCCC2)nc1-c1cc2c(cc1OC(F)F)NCCS2)c1cnn2cccnc12 [Example 51, N-[3-[6-(difluoromethoxy)-3,4-dihydro-2H-1,4-benzothiazin-7-yl]-1-[2-oxo-2-(1-piperidyl)ethyl]pyrazol-4-yl]pyrazolo[1,5-a]pyrimidine-3-carboxamide] | 0.1 | 0.13 | 11 | 

Further lines, with some results ahead:

Row | Ki [1] [nM] | Ki [3] [nM] | SMILES | IC50 ([2]; Homo sapiens, BEAS-2B) [nM] | IC50 [2] [nM]
15 | 0.12 | 0.19 | COc1cc2cc(C)sc2cc1-c1n[nH]cc1NC(=O)c1cnn2cccnc12 [Example 22, N-(3-(5-methoxy-2-methylbenzo[b]thiophen-6-yl)-1H-pyrazol-4-yl)pyrazolo[1,5-a]pyrimidine-3-carboxamide] | 6 | 
16 | 0.27 | 0.41 | COc1cc2sc(C#N)cc2cc1-c1n[nH]cc1NC(=O)c1cnn2cccnc12 [Example 24, N-(3-(2-cyano-6-methoxybenzo[b]thiophen-5-yl)-H-pyrazol-4-yl)pyrazolo[1,5-a]pyrimidine-3-carboxamide] | 14 | 
17 | 0.06 | 0.11 | Cc1cc2cc(OC(F)F)c(-c3n[nH]cc3NC(=O)c3cnn4cccnc34)cc2s1 [Example 25, N-(3-(5-(difluoromethoxy)-2-methylbenzo[b]thiophen-6-yl)-1H-pyrazol-4-yl)pyrazolo[1,5-a]pyrimidine-3-carboxamide] | 5 | 
18 | 0.34 | 0.89 | COc1cc2c(cc1-c1n[nH]cc1NC(=O)c1cnn3cccnc13)CCC2 [Example 27, N-[3-(6-methoxyindan-5-yl)-1H-pyrazol-4-yl]pyrazolo[1,5-a]pyrimidine-3-carboxamide] | 6 | 
19 | 0.49 | 0.84 | COc1cc2cnccc2cc1-c1n[nH]cc1NC(=O)c1cnn2cccnc12 [Example 29, N-[3-(7-methoxy-6-isoquinolyl)-1H-pyrazol-4-yl]pyrazolo[1,5-a]pyrimidine-3-carboxamide] | 85 | 
20 | 0.2 | 0.3 | COc1cc2[nH]ncc2cc1-c1n[nH]cc1NC(=O)c1cnn2cccnc12 [Example 30, N-[3-(6-methoxy-1H-indazol-5-yl)-1H-pyrazol-4-yl]pyrazolo[1,5-a]pyrimidine-3-carboxamide] |  | 369
21 | 0.9 | 2.09 | COc1cc2[nH]cnc2cc1-c1n[nH]cc1NC(=O)c1cnn2cccnc12 [Example 31, N-[3-(6-methoxy-1H-benzimidazol-5-yl)-1H-pyrazol-4-yl]pyrazolo[1,5-a]pyrimidine-3-carboxamide] | 6910 | 
22 | 0.11 | 0.16 | COc1cc2cnsc2cc1-c1n[nH]cc1NC(=O)c1cnn2cccnc12 [Example 32, N-[3-(5-methoxy-1,2-benzothiazol-6-yl)-1H-pyrazol-4-yl]pyrazolo[1,5-a]pyrimidine-3-carboxamide] | 2 | 
23 | 0.4 | 0.91 | COc1cc2sncc2cc1-c1n[nH]cc1NC(=O)c1cnn2cccnc12 [Example 33, N-[3-(6-methoxy-1,2-benzothiazol-5-yl)-1H-pyrazol-4-yl]pyrazolo[1,5-a]pyrimidine-3-carboxamide] | 21 | 
24 | 0.19 | 0.6 | COc1cc2sccc2cc1-c1[nH]ncc1NC(=O)c1cnn2cccnc12 [Example 34, N-[5-(6-methoxybenzothiophen-5-yl)-1H-pyrazol-4-yl]pyrazolo[1,5-a]pyrimidine-3-carboxamide] | 10 | 
25 | 0.11 | 0.28 | COc1cc2ccsc2cc1-c1n[nH]cc1NC(=O)c1cnn2cccnc12 [Example 35, N-[3-(5-methoxybenzothiophen-6-yl)-1H-pyrazol-4-yl]pyrazolo[1,5-a]pyrimidine-3-carboxamide] | 3 | 
26 | 0.49 | 0.65 | CCOC(=O)c1cc2cc(-c3n[nH]cc3NC(=O)c3cnn4cccnc34)c(OC)cc2s1 [Example 36, ethyl 6-methoxy-5-[4-(pyrazolo[1,5-a]pyrimidine-3-carbonylamino)-1H-pyrazol-3-yl]benzothiophene-2-carboxylate] | 32 | 

Reference: patent US11155557B2, “Pyrazolopyrimidine compounds and methods of use thereof” (Genentech, Inc., priority 2016, dated 2021)
